Measured values published in patent US10548999B2, “Method and apparatus for sterilizing preform” (DAI NIPPON PRINTING CO., LTD., priority 2012, dated 2020).
Like-named read-outs stand apart in the source and are kept apart here.

Columns and labels:
AspergiLLus niger [1] = conditions: then superheated steam 300° C. 5 sec. to inner surface
Description: (§1) Mist of hydrogen peroxide water was produced by supplying hydrogen peroxide water of 35% concentration and pressurized air to a two-fluid spray, the thus produced mist was mixed with hot air having temperature of 60° C., and then, the mist of the hydrogen peroxide water was sprayed inside a chamber through a nozzle. The chamber has a size of 600 mm width, and a conveyer has 1.5 m length. Preforms, each being formed into a bottle of […], were supplied to the conveyer by the number of 860 bottles/min., and the conveyer was driven at a speed of 0.2/sec. […] Furthermore, preforms, each being formed into a bottle of […], were supplied by the number of 250 bottles/min., and the same operation was performed. […] Such preforms were subjected to the following treatment.
(§2) Superheated steam of flow amount of 0.7 g/sec. generated by heating water by a superheated steam generator of induction heating system was sprayed to each inner surface of the preform from a nozzle having inner diameter of 8 mm at blasting temperature of 300° C. for 5 sec.
(§3) In the above Table 1, term “B” is an abbreviated term of “BaciLLus subtiLis”, and “A.nig.” is an abbreviated term of “AspergiLLus niger”. “D” is a D-valve indicating the sterilizing effect.

BaciLLus subtiLis [2] = conditions: then superheated steam 300° C. 5 sec. to inner surface
Description: as §1, §2, §3

[3] = preform molded into a bottle and filled with water
Description: (§4) Mist of hydrogen peroxide water was produced by supplying hydrogen peroxide water of 35% concentration and pressurized air to a two-fluid spray, the thus produced mist was mixed with hot air having temperature of 60° C., and then, the mist of the hydrogen peroxide water was sprayed inside a chamber through a nozzle. The chamber is a box-shaped member, having no bottom, having a size of 1,000 mm width, 1,500 mm length and 200 mm height, and the box-shaped chamber was set to a predetermined position on the conveyer having 600 mm width. Preforms of the number of 860 bottles/min., each being formed into a bottle of […], were supplied to the conveyer, which is driven at a speed of 0.2/sec.

BaciLLus subtiLis [4] = conditions: 35% hydrogen peroxide water mist mixed with 60° C. hot air, about 50 mg per preform
Description: as §4

BaciLLus subtiLis [5] = tested on: BaciLLus subtiLis
Description: The hydrogen peroxide water adhered to each preform having inner volume of 500 ml for bottle as in the first example 1. Furthermore, superheated steam of flow amount of 0.7 g/sec. generated by heating water by a superheated steam generator of an induction heating system was sprayed to the inner surface of each preform from a nozzle having inner diameter of 8 mm at blasting temperature in a range of 180 to 550° C. for 10 to 3 sec.
Further, it is to be noted that, in the above Table 3, the sterilization effect is shown with [∘] (good) in the case where the D-value with respect to BaciLLus subtiLis is not less than 6, and the other cases are shown with [x] (not good). With respect to the deformation of the inner diameter, in the case where the inner diameter of the preform is deformed by less than 0.05 mm is shown [∘] (good), and the other cases are shown with [x] (not good).

AspergiLLus niger [6] = tested on: AspergiLLus niger
Description: (§5) The first chamber 5a and the second chamber 6a have size of 1000 mm width, and 1500 mm length, and 200 mm height, respectively. Preforms, each being formed into a bottle of 500 ml, were supplied to the conveyer by the number of 860 bottles/min., and the conveyer was driven at a predetermined speed.
(§6) In the above Table 4, term “B” is an abbreviated term of “BaciLLus subtiLis”, and “A.nig.” is an abbreviated term of “AspergiLLus niger”. “D” is a D-valve indicating the sterilization effect.

BaciLLus subtiLis [7] = tested on: BaciLLus subtiLis; remark: listed apart in the source
Description: as §5, §6

[8] = preform for 2 L, 35% mist about 150 mg
[9] = preform for 500 mL, 35% mist about 50 mg
[10] = hydrogen peroxide 3%, hot air NO, superheated steam 400° C., 0.2 m/sec.

For `OO` [hydrogen peroxide], the “sterilizing effect A. nig” value (AspergiLLus niger [1]; [8]) was “More than 6.0D”, the “sterilizing effect A. nig” value (AspergiLLus niger [1]; [9]) was “More than 6.0D” and the “sterilizing effect B. sub.” value (BaciLLus subtiLis [2]; [8]) was 3.0D. For the same compound, the “sterilizing effect B. sub.” value (BaciLLus subtiLis [2]; [9]) was 3.1D, the “remaining amount of the hydrogen peroxide” value [3] was 0.012 ppm and the sterilizing power (BaciLLus subtiLis [4]; inner surface of the preform) was 4.2 D. For the same compound, the sterilizing power (BaciLLus subtiLis [4]; outer surface of the preform) was 5.3 D, the “Sterilizing Effect” value (BaciLLus subtiLis [5]; hydrogen peroxide water as in Example 1, then superheated steam 180° C., 10 sec.) was “X (the other cases are shown with [x] (not good))” and the “Sterilizing Effect” value (BaciLLus subtiLis [5]; hydrogen peroxide water as in Example 1, then superheated steam 250° C., 6 sec.) was “◯ ([∘] (good) in the case where the D-value with respect to BaciLLus subtiLis is not less than 6)”. For the same compound, the “Sterilizing Effect” value (BaciLLus subtiLis [5]; hydrogen peroxide water as in Example 1, then superheated steam 350° C., 4 sec.) was “◯ ([∘] (good) in the case where the D-value with respect to BaciLLus subtiLis is not less than 6)”, the “Sterilizing Effect” value (BaciLLus subtiLis [5]; hydrogen peroxide water as in Example 1, then superheated steam 450° C., 3 sec.) was “◯ ([∘] (good) in the case where the D-value with respect to BaciLLus subtiLis is not less than 6)” and the “Sterilizing Effect” value (BaciLLus subtiLis [5]; hydrogen peroxide water as in Example 1, then superheated steam 550° C., 3 sec.) was “◯ ([∘] (good) in the case where the D-value with respect to BaciLLus subtiLis is not less than 6)”. For the same compound, the “sterilization effect A. niger” value (AspergiLLus niger [6]; [10]) was 6.0D, the “sterilizing effect with respect to the A. niger” value (AspergiLLus niger [6]; superheated steam added with hydrogen peroxide, regardless of the preheating by hot air (summary of Table 4)) was “more than 6.0 D” and the “sterilization effect B. sub.” value (BaciLLus subtiLis [7]; hydrogen peroxide 3%, hot air 100° C., superheated steam 200° C., 0.2 m/sec.) was 5.3D. For the same compound, the “sterilization effect B. sub.” value (BaciLLus subtiLis [7]; hydrogen peroxide 3%, hot air 100° C., superheated steam 400° C., 0.2 m/sec.) was 6.0D, the “sterilization effect B. sub.” value (BaciLLus subtiLis [7]; [10]) was 4.0D and the “sterilization effect B. sub.” value (BaciLLus subtiLis [7]; hydrogen peroxide 10%, hot air 80° C., superheated steam 400° C., 0.2 m/sec.) was 6.0D. For the same compound, the “sterilization effect B. sub.” value (BaciLLus subtiLis [7]; hydrogen peroxide 10%, hot air NO, superheated steam 400° C., 0.5 m/sec.) was 5.5D and the “sterilizing effect with respect to the B.sub” value (BaciLLus subtiLis [7]; preheating performed and superheated steam added with hydrogen peroxide blasted (summary of Table 4)) was “more than 6.0 D”.
